From patent US7615651B2, “Diaryl, dipyridinyl and aryl-pyridinyl derivatives and uses thereof” (Pfizer Inc., priority 2006, dated 2009)
Counter-ions that a name gives are not always drawn. Like-named read-outs stand apart in the source and are kept apart here. Blank lines part the entries; values can stand above or below the compound they belong to.

Experiments:
[1] = molecular target: T1, opioid receptor delta (Homo sapiens, UniProt P41143); experiment: GTPγ[35S] binding assay, antagonism of BW-373U86; assay type: biochemical
T1 construct: expressed in transfected cells
T1 sequence (P41143 whole entry): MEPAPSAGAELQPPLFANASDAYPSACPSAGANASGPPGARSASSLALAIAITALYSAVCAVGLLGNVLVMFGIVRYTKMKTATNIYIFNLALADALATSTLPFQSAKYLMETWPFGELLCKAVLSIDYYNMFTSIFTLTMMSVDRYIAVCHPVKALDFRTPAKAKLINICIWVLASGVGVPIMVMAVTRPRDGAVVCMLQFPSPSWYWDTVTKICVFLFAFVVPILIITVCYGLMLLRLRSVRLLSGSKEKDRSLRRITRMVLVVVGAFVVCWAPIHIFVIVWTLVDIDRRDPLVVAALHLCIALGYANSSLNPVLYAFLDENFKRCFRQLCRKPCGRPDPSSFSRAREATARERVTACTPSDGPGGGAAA
Method in brief: (§1)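 Membranes with […] GTPγ[35S] in Tris pH 7.4 buffer with MgCl2, NaCl, 30 μM GDP; antagonist (10^−10–10^−5 M) preincubated 10 min at 30 °C, then challenged with BW-373U86 1 nM (delta), dynorphin-A 10 nM (kappa) or endorphin 1 μM (mu) for 1 h at 30 °C. Scintillation read-out; Ki derived.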

[2] = molecular target: T2, opioid receptor kappa (Homo sapiens, UniProt P41145); experiment: GTPγ[35S] binding assay, antagonism of dynorphin-A; assay type: biochemical
T2 construct: expressed in transfected cells
T2 sequence (P41145 whole entry): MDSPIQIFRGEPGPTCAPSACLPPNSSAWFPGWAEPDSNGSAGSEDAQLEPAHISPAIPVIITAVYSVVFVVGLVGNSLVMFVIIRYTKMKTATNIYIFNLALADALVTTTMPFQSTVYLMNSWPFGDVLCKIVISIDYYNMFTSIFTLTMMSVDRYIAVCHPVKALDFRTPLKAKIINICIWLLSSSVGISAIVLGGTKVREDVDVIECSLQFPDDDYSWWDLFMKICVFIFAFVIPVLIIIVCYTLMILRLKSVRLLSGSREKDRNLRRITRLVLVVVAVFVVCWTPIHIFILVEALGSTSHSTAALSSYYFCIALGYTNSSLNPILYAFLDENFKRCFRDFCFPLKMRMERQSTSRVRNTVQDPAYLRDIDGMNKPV
Method in brief: as §1

[3] = molecular target: T3, opioid receptor mu (Homo sapiens, UniProt P35372); experiment: GTPγ[35S] binding assay, antagonism of endorphin; assay type: biochemical
T3 construct: expressed in transfected cells
T3 sequence (P35372 whole entry): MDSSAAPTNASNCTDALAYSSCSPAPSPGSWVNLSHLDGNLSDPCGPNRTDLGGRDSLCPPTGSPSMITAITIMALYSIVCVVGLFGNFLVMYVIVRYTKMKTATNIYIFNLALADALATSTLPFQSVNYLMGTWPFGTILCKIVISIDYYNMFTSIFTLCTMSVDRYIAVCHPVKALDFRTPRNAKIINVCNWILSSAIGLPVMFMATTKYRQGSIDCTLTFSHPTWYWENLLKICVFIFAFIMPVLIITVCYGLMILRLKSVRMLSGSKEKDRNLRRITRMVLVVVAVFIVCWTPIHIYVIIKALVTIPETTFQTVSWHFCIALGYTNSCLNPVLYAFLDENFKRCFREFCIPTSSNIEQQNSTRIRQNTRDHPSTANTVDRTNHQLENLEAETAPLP
Method in brief: as §1

[4] = Spontaneous food intake model; assay type: in vivo, Sprague-Dawley rats; settings: rats dosed before onset of dark cycle, compared with vehicle
Description: Male Sprague-Dawley rats may be obtained from Charles River Laboratories, Inc. (Wilmington, Mass.). The rats were individually housed and fed powdered chow. They were maintained on a 12 hour light/dark cycle and received food and water ad libitum. The animals were acclimated to the vivarium for a period of one week before testing is conducted. Rats were transferred to individual test cages 30 hours before the study. The rats were administered test compound or vehicle alone (no compound) 15-30 minutes prior to the onset of the dark cycle. The test compounds were dosed at ranges between 0.1 and 100 mg/kg depending upon the compound. The standard vehicle was 0.5% (w/v) methylcellulose or 30% β-cyclodextrin in water and the standard route of administration was oral. However, different vehicles and routes of administration are used to accommodate various compounds when required. Food intake was monitored using an automated Columbus Instruments system (Columbus, Ohio). Individual rat food intake was recorded continuously at 10-minute intervals, starting at the time of dosing, for a period of at least 12 hours. Compound efficacy was determined by comparing the food intake pattern of compound-treated rats to vehicle.

[5] = Fasted induced refeeding model; assay type: in vivo, Sprague-Dawley rats; settings: rats after overnight fast, compared with vehicle
Description: The following screen is used to evaluate the efficacy of test compounds for inhibiting food intake in Sprague-Dawley rats after an overnight fast.
Male Sprague-Dawley rats were obtained from Charles River Laboratories, Inc. (Wilmington, Mass.). The rats are individually housed and fed powdered chow. They are maintained on a 12 hour light/dark cycle and received food and water ad libitum. The animals are acclimated to the vivarium for a period of one week before testing is conducted. Testing is completed during the light portion of the cycle.
To conduct the food intake efficacy screen, rats are transferred to individual test cages without food the afternoon prior to testing, and the rats are fasted overnight. After the overnight fast, rats are dosed the following morning with vehicle or test compounds. A known antagonist is dosed (3 mg/kg) as a positive control, and a control group receives vehicle alone (no compound). […] Individual rat food intake is recorded continuously at 10-minute intervals for a period of two hours. When required, food intake is recorded manually using an electronic scale; food is weighed every 30 minutes after food is provided up to four hours after food is provided. Compound efficacy is determined by comparing the food intake pattern of compound-treated rats to vehicle and the standard positive control.

[6] = rat, in vivo; cited from earlier work
[7] = molecular target: mu opioid receptor (Homo sapiens, UniProt P35372); settings: mu opioid receptor subtype; cited from earlier work
mu opioid receptor, sequence (P35372 whole entry): as above

[8] = molecular target: kappa opioid receptor (Homo sapiens, UniProt P41145); settings: kappa opioid receptor subtype; cited from earlier work
kappa opioid receptor, sequence (P41145 whole entry): as the sequence (P41145 whole entry) above

[9] = molecular target: delta opioid receptor (Homo sapiens, UniProt P41143); settings: cited from earlier work
delta opioid receptor, sequence (P41143 whole entry): as the sequence (P41143 whole entry) above

[10] = rodents; cited from earlier work
[11] = humans; cited from earlier work
[12] = cited from earlier work
[13] = test system: TNF-α production; settings: rats; cited from earlier work
[14] = bile duct ligated rats; cited from earlier work
[15] = read-out: Delta functional (GTPγ[35S] binding Ki)
[16] = read-out: Kappa functional (GTPγ[35S] binding Ki)
[17] = read-out: Mu functional (GTPγ[35S] binding Ki)

melting point: 229 °C
SMILES: Cc1cc(C(N)=O)c(F)cc1-c1ccc(CNCCC(C)C)c(F)c1.Cl.O (hydrate or solvate)

Ki [1, 15]: 1.7 nM
Ki [2, 16]: 2.64 nM
Ki [3, 17]: 2.1 nM
SMILES: Cc1cc(C(N)=O)ccc1-c1cc(F)c(CNCCC(C)C)c(F)c1.Cl [E1-01, 3′,5′Difluoro-2-methyl-4′-[(3-methyl-butylamino)-methyl]-biphenyl-4-carboxylic acid amide hydrochloride salt]
food intake [4]: significant reduction in food intake

Ki [1, 15]: 1.38 nM
Ki [2, 16]: 2.06 nM
Ki [3, 17]: 0.886 nM
SMILES: Cc1cc(CNCCC(C)C)ccc1-c1ccc(C(N)=O)cc1C.Cl [E2-01, 2,2′-Dimethyl-4′-[(3-methyl-butylamino)-methyl]-biphenyl-4-carboxylic acid amide hydrochloride salt]
food intake [4]: significant reduction in food intake

SMILES: Cc1cc(C(N)=O)ccc1-c1ccc(CNCCC(C)C)c(Cl)c1 [E3-01, hydrochloride salt]
Ki [1, 15]: 1.53 nM
Ki [2, 16]: 1.73 nM
Ki [3, 17]: 2.82 nM
food intake [4]: significant reduction in food intake

SMILES: Cc1cc(C(N)=O)ccc1-c1ccc(CNCCC(C)C)cc1 [E4-01, 2-Methyl-4′-[(3-methyl-butylamino)-methyl]-biphenyl-4-carboxylic acid amide]
Ki ([1]; average Ki, antagonism of BW-373U86 (1 nM) stimulated GTPγ[35S] binding, delta opioid receptor membranes, read-out: Delta functional (GTPγ[35S] binding Ki)): 20 nM
Ki ([2]; average Ki, antagonism of dynorphin-A (10 nM) stimulated GTPγ[35S] binding, kappa opioid receptor membranes, read-out: Kappa functional (GTPγ[35S] binding Ki)): 2.4 nM
Ki ([3]; average Ki, antagonism of endorphin (1 μM) stimulated GTPγ[35S] binding, mu opioid receptor membranes, read-out: Mu functional (GTPγ[35S] binding Ki)): 6.5 nM
food intake [4]: significant reduction in food intake

Ki ([1]; read-out: Delta functional Ki (GTPγ[35S] binding)): 1400 nM
Ki ([2]; read-out: Kappa functional Ki (GTPγ[35S] binding)): 5.9 nM
Ki ([3]; read-out: Mu functional Ki (GTPγ[35S] binding)): 3.3 nM
SMILES: CC(C)CCNCc1ccc(-c2cccc(-c3nnc[nH]3)c2)c(F)c1.Cl [E7-02, [2-Fluoro-3′-(4H-[1,2,4]-triazol-3-yl)-biphenyl-4-ylmethyl]-(3-methyl-butyl)-amine hydrochloride salt]
food intake [5]: significant reduction in food intake
food intake [4]: significant reduction in food intake

SMILES: C[C@H]1CN(CC[C@H](O)C2CCCCC2)CC[C@@]1(C)c1cccc(O)c1 [LY255582]
anorectic effects [6]: robust anorectic effects

SMILES: C[C@H]1CN(CCC(O)C2CCCCC2)CC[C@@]1(C)c1cccc(O)c1 (stereo partly drawn) [LY515300, 1-(3-cyclohexyl-3-hydroxypropyl)-3(R),4(R)-dimethyl-4-(3-hydroxyphenyl)piperidine]
binding affinity [7]: subnanomolar
binding affinity [8]: subnanomolar
binding affinity [9]: lower affinity

SMILES: O=C1CC[C@@]2(O)[C@H]3Cc4ccc(O)c5c4[C@@]2(CCN3CC2CC2)[C@H]1O5 [Naltrexone]
weight loss efficacy [10]: poor weight loss efficacy
weight loss efficacy [11]: poor weight loss efficacy
insulin sensitivity ([12]; Polycystic Ovarian Syndrome (PCOS) women with hyperinsulinemia): improve insulin sensitivity
insulin sensitivity ([12]; post-menopausal women with hyperinsulinemia): improve insulin sensitivity
LPS-stimulated TNF-α production [13]: inhibit LPS-stimulated TNF-α production
liver fibrosis [14]: attenuate liver fibrosis
